Tested on: HIV-GFP-VSV-G reporter virus
Test: microbe, parasite or virus in culture
Assay type: cell-based, HIV-1
Conditions: Human immunodeficiency virus 1, TZM-bl, read-out: percentage inhibition of HIV-GFP-VSV-G replication

COc1c(Cl)cc(C[C@@H](C(=O)O)N(C)C)cc1Cl [TODC-2M]
inhibition at 150 µM: 29%
